From US20100035866A1, “NOVEL SUBSTITUTED-1, 1-DIOXO-BENZO[1,2,4]THIADIAZIN-3ONES, PREPARATION METHOD THEREOF, AND PHARMACEUTICAL COMPOSITION CONTAINING THE SAME” (KOREA RESEARCH INSTITUTE OF CHEMICAL TECHNOLOGY, priority 2006, published 2010) come the findings set out here.

The target of data set [1] is Human serotonin 5-HT6 receptor (Homo sapiens, UniProt P50406). Briefly: [3H]LSD binding assay on cloned 5-HT6 receptor.
[2] abbreviates: IC50 (nM), binding affinity to the 5-HT6 receptor, Table 2, 1.87 nM [3H]LSD, cloned human receptor membranes from Sf21 cells, 37° C. 60 min.

Read-outs that look alike come from different tables or passages of the source.

As a reminder, the melting point is the temperature of the solid-liquid transition. What is called IC50 is the concentration that gives 50% inhibition. A high value points to weaker potency.

Human serotonin 5-HT6 receptor, sequence (P50406 whole entry): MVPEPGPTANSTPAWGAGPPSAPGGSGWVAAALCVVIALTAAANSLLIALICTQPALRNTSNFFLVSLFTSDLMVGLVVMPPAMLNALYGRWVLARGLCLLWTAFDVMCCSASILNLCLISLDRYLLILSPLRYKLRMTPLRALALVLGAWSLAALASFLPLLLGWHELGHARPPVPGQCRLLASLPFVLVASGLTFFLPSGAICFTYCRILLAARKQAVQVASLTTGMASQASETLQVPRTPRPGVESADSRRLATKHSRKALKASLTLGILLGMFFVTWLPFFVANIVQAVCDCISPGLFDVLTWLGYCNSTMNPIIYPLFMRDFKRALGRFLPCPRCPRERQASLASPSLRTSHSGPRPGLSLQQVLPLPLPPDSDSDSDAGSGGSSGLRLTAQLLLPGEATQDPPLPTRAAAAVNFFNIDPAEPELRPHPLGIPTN

In turn, `COc1ccccc1CN1C(=O)N(Cc2ccccc2)c2cc(Cl)cc(N3CCNCC3)c2S1(=O)=O` [Example 51, 4-Benzyl-6-chloro-2-(2-methoxy-benzyl)-1,1-dioxo-8-piperazin-1-yl-1,4-dihydro-2H-1λ^6-benzo[1,2,4]thiadiazin-3-one] returned a melting point of 129 to 130 °C. Also, the IC50 in data set [1] (setting [2]) stood at 48.9 nM. For the compound `Cc1cccc(CN2C(=O)N(Cc3ccccc3)c3cc(Cl)cc(N4CCN(C)CC4)c3S2(=O)=O)c1` [Example 14, 4-Benzyl-6-chloro-2-(3-methyl-benzyl)-8-(4-methyl-piperazin-1-yl)-1,1-dioxo-1,4-dihydro-2H-1λ^6-benzo[1,2,4]thiadiazin-3-one], the melting point fell in the range of 188 to 191 °C. For the same compound, in data set [1] (setting [2]), the IC50 was 11.6 nM.

`COc1ccc(N2C(=O)N(Cc3ccccc3)c3cc(Cl)cc(N4CCNCC4)c3S2(=O)=O)cc1` [Example 63, 4-Benzyl-6-chloro-2-(4-methoxy-phenyl)-1,1-dioxo-8-piperazin-1-yl-1,4-dihydro-2H-1λ^6-benzo[1,2,4]thiadiazin-3-one] returned a melting point of 155 to 156 °C. Further, the IC50 in data set [1] (setting [2]) came out at 28 nM. Taken in the same sequence, the figures for `COc1ccccc1CN1C(=O)N(Cc2ccccc2)c2cc(Cl)cc(N3CCN(C)CC3)c2S1(=O)=O` [Example 16, 4-Benzyl-6-chloro-2-(2-methoxy-benzyl)-8-(4-methyl-piperazin-1-yl)-1,1-dioxo-1,4-dihydro-2H-1λ^6-benzo[1,2,4]thiadiazin-3-one] were 93 to 94 °C and 4.6 nM.

In the case of `O=C1N(Cc2ccccc2)c2cc(Cl)cc(N3CCNCC3)c2S(=O)(=O)N1Cc1ccccc1Cl` [Example 47, 4-Benzyl-6-chloro-2-(2-chloro-benzyl)-1,1-dioxo-8-piperazin-1-yl-1,4-dihydro-2H-1λ^6-benzo[1,2,4]thiadiazin-3-one], the melting point fell in the range of 126 to 127 °C. The compound further gave an IC50 in data set [1] (setting [2]) of 15.9 nM. For `CN1CCN(c2cc(Cl)cc3c2S(=O)(=O)N(Cc2ccc(Br)cc2)C(=O)N3Cc2ccccc2)CC1` [Example 10, 4-Benzyl-2-(4-bromo-benzyl)-6-chloro-8-(4-methyl-piperazin-1-yl)-1,1-dioxo-1,4-dihydro-2H-1λ^6-benzo[1,2,4]thiadiazin-3-one] the same measures were 115 to 116 °C and 6.1 nM. `COC(=O)c1ccc(CN2C(=O)N(Cc3ccccc3)c3cc(Cl)cc(N4CCN(C)CC4)c3S2(=O)=O)cc1` [Example 23, 4-[4-Benzyl-6-chloro-8-(4-methyl-piperazin-1-yl)-1,1,3-trioxo-3,4-dihydro-1H-1λ^6-benzo[1,2,4]thiadiazin-2-ylmethyl]-benzoic acid methyl ester] displayed a melting point of 140 to 143 °C. This compound had an IC50 in data set [1] (setting [2]) of 28.8 nM. Consider `CN1CCN(c2cc(Cl)cc3c2S(=O)(=O)N(Cc2ccncc2)C(=O)N3Cc2ccccc2)CC1` [Example 42, 4-Benzyl-6-chloro-8-(4-methyl-piperazin-1-yl)-1,1-dioxo-2-pyridin-4-ylmethyl-1,4-dihydro-2H-1λ^6-benzo[1,2,4]thiadiazin-3-one], for which the melting point is 107 to 108 °C. This compound also registered an IC50 in data set [1] (setting [2]) of 7.7 nM.

For the compound `Cc1ccccc1CN1C(=O)N(Cc2ccccc2)c2cc(Cl)cc(N3CCNCC3)c2S1(=O)=O` [Example 50, 4-Benzyl-6-chloro-2-(2-methyl-benzyl)-1,1-dioxo-8-piperazin-1-yl-1,4-dihydro-2H-1λ^6-benzo[1,2,4]thiadiazin-3-one], the melting point fell in the range of 70 to 72 °C. Moreover, in data set [1] (setting [2]), the IC50 was determined as 22.2 nM. Regarding `CN1CCN(c2cc(Cl)cc3c2S(=O)(=O)N(C)C(=O)N3Cc2ccccc2)CC1` [Example 32, 4-Benzyl-6-chloro-2-methyl-8-(4-methyl-piperazin-1-yl)-1,1-dioxo-1,4-dihydro-2H-1λ^6-benzo[1,2,4]thiadiazin-3-one], the IC50 in data set [1] (setting [2]) came to 4.2 nM. On to `O=C1N(Cc2ccccc2)c2cc(Cl)cc(N3CCN4CCC[C@H]4C3)c2S(=O)(=O)N1Cc1ccccc1Cl` [Example 73, 4-Benzyl-6-chloro-2-(2-chloro-benzyl)-8-[(6S)-1,4-diazabicyclo[4.3.0]non-4-yl]-1,1-dioxo-1,4-dihydro-2H-1λ^6-benzo[1,2,4]thiadiazin-3-one], for which the melting point was in the range of 143 to 144 °C. The compound further returned an IC50 in data set [1] (setting [2]) of 16 nM. Taken in the same sequence, the figures for `C[C@H]1CN(c2cc(Cl)cc3c2S(=O)(=O)N(Cc2ccccc2Cl)C(=O)N3Cc2ccccc2)CCN1` [Example 72, 4-Benzyl-6-chloro-2-(2-chloro-benzyl)-8-[(S)-3-methyl-piperazin-1-yl]-1,1-dioxo-1,4-dihydro-2H-1λ^6-benzo[1,2,4]thiadiazin-3-one] were 142 to 143 °C and 6.8 nM.

For the compound `CN1CCN(c2cc(Cl)cc3c2S(=O)(=O)N(Cc2cccc([N+](=O)[O-])c2)C(=O)N3Cc2ccccc2)CC1` [Example 21, 4-Benzyl-6-chloro-8-(4-methyl-piperazin-1-yl)-2-(3-nitro-benzyl)-1,1-dioxo-1,4-dihydro-2H-1λ^6-benzo[1,2,4]thiadiazin-3-one], the melting point was 172 to 175 °C. In data set [1] (setting [2]), this compound returned a 50% inhibitory concentration (IC50) of 4.2 nM. As to `CCCN1C(=O)N(Cc2ccccc2)c2cc(Cl)cc(N3CCNCC3)c2S1(=O)=O` [Example 65, 4-Benzyl-6-chloro-2-propyl-1,1-dioxo-8-piperazin-1-yl-1,4-dihydro-2H-1λ^6-benzo[1,2,4]thiadiazin-3-one], the melting point fell in the range of 148 to 150 °C. Consider `Cc1ccc(CN2C(=O)N(Cc3ccccc3)c3cc(Cl)cc(N4CCN(C)CC4)c3S2(=O)=O)o1` [Example 43, 4-Benzyl-6-chloro-2-(5-methyl-furan-2-ylmethyl)-8-(4-methyl-piperazin-1-yl)-1,1-dioxo-1,4-dihydro-2H-1λ^6-benzo[1,2,4]thiadiazin-3-one], for which the melting point was in the range of 130 to 131 °C. The compound further came in with a 50% inhibitory concentration (IC50) in data set [1] (setting [2]) of 75.9 nM. `CCCCN1C(=O)N(Cc2ccccc2)c2cc(Cl)cc(N3CCN(C)CC3)c2S1(=O)=O` [Example 35, 4-Benzyl-2-butyl-6-chloro-8-(4-methyl-piperazin-1-yl)-1,1-dioxo-1,4-dihydro-2H-1λ^6-benzo[1,2,4]thiadiazin-3-one] yielded a melting point of 116 to 118 °C. The half-maximal inhibitory concentration (IC50) in data set [1] (setting [2]) turned out to be 1.9 nM.

The compound `CN1CCN(c2cc(Cl)cc3c2S(=O)(=O)N(Cc2ccc(I)cc2)C(=O)N3Cc2ccccc2)CC1` [Example 12, 4-Benzyl-6-chloro-2-(4-iodo-benzyl)-8-(4-methyl-piperazin-1-yl)-1,1-dioxo-1,4-dihydro-2H-1λ^6-benzo[1,2,4]thiadiazin-3-one] returned a melting point of 110 to 111 °C. The same compound showed an IC50 in data set [1] (setting [2]) of 1.4 nM.

On to `CN1CCN(c2cc(Cl)cc3c2S(=O)(=O)N(Cc2ccccc2Br)C(=O)N3Cc2ccccc2)CC1` [Example 8, 4-Benzyl-2-(2-bromo-benzyl)-6-chloro-8-(4-methyl-piperazin-1-yl)-1,1-dioxo-1,4-dihydro-2H-1λ^6-benzo[1,2,4]thiadiazin-3-one], for which the melting point is 107 to 109 °C. The IC50 in data set [1] (setting [2]) was determined as 8.9 nM. For `O=C1N(Cc2ccccc2)c2cc(Cl)cc(N3CCNCC3)c2S(=O)(=O)N1Cc1ccccc1[N+](=O)[O-]` [Example 55, 4-Benzyl-6-chloro-2-(2-nitro-benzyl)-1,1-dioxo-8-piperazin-1-yl-1,4-dihydro-2H-1λ^6-benzo[1,2,4]thiadiazin-3-one] the same measures were 134 to 135 °C and 33 nM. Taken in the same sequence, the figures for `O=C1N(Cc2ccccc2)c2cc(Cl)cc(N3CCNCC3)c2S(=O)(=O)N1Cc1ccccc1F` [Example 45, 4-Benzyl-6-chloro-2-(2-fluoro-benzyl)-1,1-dioxo-8-piperazin-1-yl-1,4-dihydro-2H-1λ^6-benzo[1,2,4]thiadiazin-3-one] were 120 to 121 °C and 18.7 nM.

`CN1CCN(c2cc(Cl)cc3c2S(=O)(=O)N(CC2CCCCC2)C(=O)N3Cc2ccccc2)CC1` [Example 36, 4-Benzyl-6-chloro-2-cyclohexylmethyl-8-(4-methyl-piperazin-1-yl)-1,1-dioxo-1,4-dihydro-2H-1λ^6-benzo[1,2,4]thiadiazin-3-one]: the melting point was in the range of 155 to 158 °C. The compound also came in with a concentration for half-maximal inhibition (IC50) in data set [1] (setting [2]) of 1.5 nM. Taken in the same sequence, the figures for `CCN1C(=O)N(Cc2ccccc2)c2cc(Cl)cc(N3CCNCC3)c2S1(=O)=O` [Example 64, 4-Benzyl-6-chloro-2-ethyl-1,1-dioxo-8-piperazin-1-yl-1,4-dihydro-2H-1λ^6-benzo[1,2,4]thiadiazin-3-one] were 158 to 161 °C and 4.6 nM.

Regarding `CCCCCCCCCCN1C(=O)N(Cc2ccccc2)c2cc(Cl)cc(N3CCNCC3)c2S1(=O)=O` [Example 67, 4-Benzyl-6-chloro-2-decyl-1,1-dioxo-8-piperazin-1-yl-1,4-dihydro-2H-1λ^6-benzo[1,2,4]thiadiazin-3-one], the IC50 in data set [1] (setting [2]) turned out to be 3 nM. The compound `O=C1N(Cc2ccccc2)c2cc(Cl)cc(N3CCNCC3)c2S(=O)(=O)N1Cc1cccc(F)c1` [Example 46, 4-Benzyl-6-chloro-2-(3-fluoro-benzyl)-1,1-dioxo-8-piperazin-1-yl-1,4-dihydro-2H-1λ^6-benzo[1,2,4]thiadiazin-3-one] returned a melting point of 154 to 155 °C. In the case of `CN1CCN(c2cc(Cl)cc3c2S(=O)(=O)N(C)C(=O)N3C)CC1` [Example 31, 6-Chloro-2,4-dimethyl-8-(4-methyl-piperazin-1-yl)-1,1-dioxo-1,4-dihydro-2H-1λ^6-benzo[1,2,4]thiadiazin-3-one], the IC50 in data set [1] worked out at 745 nM. As for `O=C1N(Cc2ccccc2)c2cc(Cl)cc(N3CCN4CCC[C@@H]4C3)c2S(=O)(=O)N1Cc1ccccc1Cl` [Example 74, 4-Benzyl-6-chloro-2-(2-chloro-benzyl)-8-[(6R)-1,4-diazabicyclo[4.3.0]non-4-yl]-1,1-dioxo-1,4-dihydro-2H-1λ^6-benzo[1,2,4]thiadiazin-3-one], the melting point was 114 to 116 °C. `CCCCCCCCCCN1C(=O)N(Cc2ccccc2)c2cc(Cl)cc(N3CCN(C)CC3)c2S1(=O)=O` [Example 40, 4-Benzyl-6-chloro-2-decyl-8-(4-methyl-piperazin-1-yl)-1,1-dioxo-1,4-dihydro-2H-1λ^6-benzo[1,2,4]thiadiazin-3-one] had a 50% inhibitory concentration (IC50) in data set [1] (setting [2]) of 4.5 nM.
